≈ marks a conversion by molar mass, not a printed value.
What was measured:
Staphylococcus aureus = assay: Antibacterial activity against Staphylococcus aureus clinical isolate after 18 to 22 hrs by broth microdilution method; assay type: functional
Staphylococcus warneri = assay: Antibacterial activity against Staphylococcus warneri clinical isolate after 18 to 22 hrs by broth microdilution method; assay type: functional
Enterococcus faecalis = assay: Antibacterial activity against Streptococcus faecalis clinical isolate after 18 to 22 hrs by broth microdilution method; assay type: functional
Escherichia coli = assay: Antibacterial activity against Escherichia coli after clinical isolate 18 to 22 hrs by broth microdilution method; assay type: functional
Proteus mirabilis = assay: Antibacterial activity against Proteus mirabilis clinical isolate after 18 to 22 hrs by broth microdilution method; assay type: functional
Enterobacter sp. = assay: Antibacterial activity against Enterobacter spp. clinical isolate after 18 to 22 hrs by broth microdilution method; assay type: functional
Klebsiella oxytoca = assay: Antibacterial activity against Klebsiella oxytoca clinical isolate after 18 to 22 hrs by broth microdilution method; assay type: functional
Candida albicans = assay: Antifungal activity against Candida albicans clinical isolate after 24 hrs by broth microdilution method; assay type: functional
Nakaseomyces glabratus = assay: Antifungal activity against Candida glabrata clinical isolate after 24 hrs by broth microdilution method; assay type: functional
Candida tropicalis = assay: Antifungal activity against Candida tropicalis clinical isolate after 24 hrs by broth microdilution method; assay type: functional
Pichia kudriavzevii = assay: Antifungal activity against Candida krusei clinical isolate after 24 hrs by broth microdilution method; assay type: functional
Candida parapsilosis = assay: Antifungal activity against Candida parapsilosis clinical isolate after 24 hrs by broth microdilution method; assay type: functional; conditions: Lodderomyces parapsilosis
[Candida] sake = Antifungal activity against Candida sake clinical isolate after 24 hrs by broth microdilution method; assay type: functional; conditions: Fermentozyma sake
[1] = Cytotoxicity against human Hep2 cells assessed as cell survival at 0.05 ug/ml after 24 hrs by trypan blue exclusion assay; assay type: cell-based, HEp-2; conditions: read-out: Survival
[2] = Cytotoxicity against human Hep2 cells assessed as cell survival at 0.5 ug/ml after 24 hrs by trypan blue exclusion assay; assay type: cell-based, HEp-2; conditions: read-out: Survival
[3] = Cytotoxicity against human Hep2 cells assessed as cell survival at 5 ug/ml after 24 hrs by trypan blue exclusion assay; assay type: cell-based, HEp-2; conditions: read-out: Survival
[4] = Cytotoxicity against human Hep2 cells assessed as cell survival at 10 ug/ml after 24 hrs by trypan blue exclusion assay; assay type: cell-based, HEp-2; conditions: read-out: Survival
[5] = Cytotoxicity against human Hep2 cells assessed as cell survival at 50 ug/ml after 24 hrs by trypan blue exclusion assay; assay type: cell-based, HEp-2; conditions: read-out: Survival
[6] = Cytotoxicity against human Hep2 cells assessed as reduction in cell viability after 24 hrs by trypan blue exclusion assay; assay type: cell-based, HEp-2
[7] = Antioxidant activity of the compound after 90 mins by phosphomolybdenum assay; assay type: physicochemical
[8] = Antioxidant activity of the compound after 30 mins by FRAP assay; assay type: physicochemical
[9] = Antioxidant activity of the compound after 30 mins by CUPRAC method; assay type: physicochemical
[10] = Antioxidant activity assessed as DPPH radical scavenging activity after 30 mins under dark conditions; assay type: physicochemical
[11] = Antioxidant activity assessed as ABTS radical scavenging activity after 30 mins under dark conditions; assay type: physicochemical
[12] = Metal chelating activity of the compound assessed as ferrous ion complex formation after 10 mins; assay type: physicochemical
[13] = system: Streptococcus sp. (viridans group); assay: Antibacterial activity against Streptococcus alpha-hemolyticus clinical isolate after 18 to 22 hrs by broth microdilution method

| MIC (Staphylococcus aureus) | MIC (Staphylococcus warneri) | MIC (Enterococcus faecalis) | MIC (Escherichia coli) | MIC (Proteus mirabilis) | MIC (Enterobacter sp.) | MIC (Klebsiella oxytoca) | Compound | MIC (Candida albicans) | MIC (Nakaseomyces glabratus) | MIC (Candida tropicalis) | MIC (Pichia kudriavzevii) | MIC (Candida parapsilosis) | MIC ([Candida] sake) | viability at 24 h, 50 ug/ml [5] | CC50 at 24 h [6] | EC50 [7] | EC50 [8] | EC50 [9] | IC50 [10] | MIC [13] | further results |
| --- | --- | --- | --- | --- | --- | --- | --- | --- | --- | --- | --- | --- | --- | --- | --- | --- | --- | --- | --- | --- | --- |
| > 256 µg/mL | > 256 µg/mL | > 256 µg/mL | > 256 µg/mL | > 256 µg/mL | > 256 µg/mL | > 256 µg/mL | C/C(=N/N=C1\SCC(=O)N1Cc1ccc(N)cc1)c1cccs1 | 4 µg/mL (≈ 11.6 µM) | 8 µg/mL (≈ 23.2 µM) | 2 µg/mL (≈ 5.81 µM) | 8 µg/mL (≈ 23.2 µM) | 8 µg/mL (≈ 23.2 µM) | 2 µg/mL (≈ 5.81 µM) |  |  |  |  |  |  | > 256 µg/mL |  |
| > 256 µg/mL | > 256 µg/mL | > 256 µg/mL | > 256 µg/mL | > 256 µg/mL | > 256 µg/mL | > 256 µg/mL | C/C(=N/N=C1\SCC(=O)N1Cc1ccc(N)cc1)c1ccccn1 | 2 µg/mL (≈ 5.89 µM) | 8 µg/mL (≈ 23.6 µM) | 2 µg/mL (≈ 5.89 µM) | 8 µg/mL (≈ 23.6 µM) | 8 µg/mL (≈ 23.6 µM) | 2 µg/mL (≈ 5.89 µM) |  |  |  |  |  |  | > 256 µg/mL |  |
| > 256 µg/mL | > 256 µg/mL | > 256 µg/mL | > 256 µg/mL | > 256 µg/mL | > 256 µg/mL | > 256 µg/mL | CC(C)=N/N=C1\SCC(=O)N1Cc1ccccc1[N+](=O)[O-] | 2 µg/mL (≈ 6.53 µM) | 4 µg/mL (≈ 13.1 µM) | 8 µg/mL (≈ 26.1 µM) | 2 µg/mL (≈ 6.53 µM) | 16 µg/mL (≈ 52.2 µM) | 4 µg/mL (≈ 13.1 µM) |  |  |  |  |  |  | > 256 µg/mL |  |
|  |  |  |  |  |  |  | Clc1ccccc1C(c1ccccc1)(c1ccccc1)n1ccnc1 [CLOTRIMAZOLE] | 2 µg/mL (≈ 5.8 µM) | 2 µg/mL (≈ 5.8 µM) | 2 µg/mL (≈ 5.8 µM) | 2 µg/mL (≈ 5.8 µM) | 2 µg/mL (≈ 5.8 µM) | 2 µg/mL (≈ 5.8 µM) | 10.2% | 18 µg/mL (≈ 52.2 µM) |  |  |  |  |  |  |
|  |  |  |  |  |  |  | O=C(O)CN(CCN(CC(=O)O)CC(=O)O)CC(=O)O [EDETIC ACID] |  |  |  |  |  |  |  |  |  |  |  |  |  | IC50 [12]: 20 µM |
|  |  |  |  |  |  |  | Cc1c(C)c2c(c(C)c1O)CCC(C)(C(=O)O)O2 (stereo not drawn) [TROLOX] |  |  |  |  |  |  |  |  | 1130 µM | 160 µM | 240 µM | 400 µM |  | IC50 [11]: 660 µM |

| Compound | MIC (Staphylococcus aureus) | MIC (Staphylococcus warneri) | MIC (Enterococcus faecalis) | MIC (Escherichia coli) | MIC (Proteus mirabilis) | MIC (Enterobacter sp.) | MIC (Klebsiella oxytoca) | MIC (Candida albicans) | MIC (Nakaseomyces glabratus) | MIC (Candida tropicalis) | MIC (Pichia kudriavzevii) | MIC (Candida parapsilosis) | MIC ([Candida] sake) | viability at 24 h, 50 ug/ml [5] | CC50 at 24 h [6] | EC50 [7] | EC50 [8] | EC50 [9] | IC50 [10] | MIC [13] | further results |
| --- | --- | --- | --- | --- | --- | --- | --- | --- | --- | --- | --- | --- | --- | --- | --- | --- | --- | --- | --- | --- | --- |
| C/C(=N\N=C1/SCC(=O)N1Cc1cccc(F)c1)c1cccs1 | > 256 µg/mL | > 256 µg/mL | > 256 µg/mL | > 256 µg/mL | > 256 µg/mL | > 256 µg/mL | > 256 µg/mL | 2 µg/mL (≈ 5.76 µM) | 8 µg/mL (≈ 23 µM) | 2 µg/mL (≈ 5.76 µM) | 2 µg/mL (≈ 5.76 µM) | 2 µg/mL (≈ 5.76 µM) | 2 µg/mL (≈ 5.76 µM) | 0% | 6 µg/mL (≈ 17.3 µM) | 1360 µM | 2620 µM | 2550 µM | > 5000 µM | > 256 µg/mL | viability at 24 h, 0.05 ug/ml [1]: 80%; viability at 24 h, 0.5 ug/ml [2]: 68%; viability at 24 h, 5 ug/ml [3]: 42%; viability at 24 h, 10 ug/ml [4]: 0%; IC50 [11]: 21100 µM; IC50 [12]: 4640 µM |
| C/C(=N/N=C1\SCC(=O)N1Cc1ccc(F)cc1)c1ccccn1 | > 256 µg/mL | > 256 µg/mL | > 256 µg/mL | > 256 µg/mL | > 256 µg/mL | > 256 µg/mL | > 256 µg/mL | 2 µg/mL (≈ 5.84 µM) | 2 µg/mL (≈ 5.84 µM) | 2 µg/mL (≈ 5.84 µM) | 8 µg/mL (≈ 23.4 µM) | 4 µg/mL (≈ 11.7 µM) | 2 µg/mL (≈ 5.84 µM) | 0% | 16 µg/mL (≈ 46.7 µM) | 1160 µM | 6220 µM | 1750 µM | > 5000 µM | > 256 µg/mL | viability at 24 h, 0.05 ug/ml [1]: 91%; viability at 24 h, 0.5 ug/ml [2]: 83%; viability at 24 h, 5 ug/ml [3]: 70%; viability at 24 h, 10 ug/ml [4]: 42%; IC50 [11]: 16100 µM; IC50 [12]: 3670 µM |
